One assay deals with SARS-CoV-2 3CL protease (Severe acute respiratory syndrome coronavirus 2, UniProt P0DTD1). Put plainly: Inhibitory activity test against SARS-CoV-2 3CL proteases. The format is biochemical. Conditions: read-out: IC50 (50% SARS-CoV-2 3CL protease inhibitory concentration).
Another assay relates to SARS-CoV-2. Put plainly: Inhibitory activity of cytopathic effect (CPE) in Vero E6/TMPRSS2 cells. The format is cell-based. In general terms: Cytopathic effects are the visible damage that an infection or toxin causes in cultured cells.
Setting [1] is: Severe acute respiratory syndrome coronavirus 2, VeroE6/TMPRSS2, 50% SARS-CoV-2 infected cell death inhibitory concentration, class symbols.
The mark [2] stands for this setting: Severe acute respiratory syndrome coronavirus 2, VeroE6/TMPRSS2, 72 h, 50% SARS-CoV-2 infected cell death inhibitory concentration, CellTiter-Glo 2.0 after 3 days culture.

Among the data in US20240400560A1, “BICYCLIC HETEROCYCLIC DERIVATIVE HAVING VIRAL GROWTH INHIBITORY ACTIVITY AND PHARMACEUTICAL COMPOSITION CONTAINING SAME” (Shionogi & Co., Ltd., priority 2021, published 2024) are IC50 and EC50 values, retold here.

Take `COc1cc(-c2cc3c(cc2Cl)NC(=O)C3)cc2c1c(=O)n(Cc1ncn(C)n1)c(=O)n2Cc1cc(Cl)c(F)cc1F` [Compound I-0266]: the IC50 on SARS-CoV-2 3CL protease was under 100 nM. The same compound came in with a concentration for a half-maximal effect (EC50) in the assay with SARS-CoV-2 (setting [1]) of under 1000 nM.
In the case of `COc1cc(-c2cc3c(cc2Cl)NC(=O)C3)cc2c1c(=O)n(Cc1ncn(C)n1)c(=O)n2Cc1cc(F)c(F)cc1F` [Compound I-0273], the IC50 at SARS-CoV-2 3CL protease is under 100 nM. Moreover, in the assay on SARS-CoV-2 (setting [1]), the 50% effective concentration (EC50) was 1000 to 10000 nM.
On the same counts, the results for `Cn1cnc(Cn2c(=O)c3c(F)cc(-c4cc5c(cc4Cl)NC(=O)C5)cc3n(Cc3cc(F)c(F)cc3F)c2=O)n1` [Compound I-0280] are under 100 nM and 1000 to 10000 nM.
For the compound `CC(=O)c1ccc(Cl)c(-c2ccc3c(=O)n(Cc4ccc[nH]c4=O)c(=O)n(Cc4cc(F)c(F)c(F)c4)c3c2)c1` [Compound I-0284], the IC50 at SARS-CoV-2 3CL protease is under 100 nM. This compound also yielded an EC50 in the assay with SARS-CoV-2 (setting [1]) of 1000 to 10000 nM.
For `CNC(=O)c1ccc(Cl)c(-c2ccc3c(=O)n(Cc4ccc[nH]c4=O)c(=O)n(Cc4cc(F)c(F)c(F)c4)c3c2)c1` [Compound I-0285], the IC50 on SARS-CoV-2 3CL protease was under 100 nM. The compound further returned an EC50 in the assay with SARS-CoV-2 (setting [1]) of 1000 to 10000 nM.
On to `CCOc1cc(-c2cc(C#N)ccc2Cl)cc2c1c(=O)n(-c1cncc(C)c1)c(=O)n2Cc1ccc(F)c(C#N)c1` [Compound I-0295], for which the IC50 at SARS-CoV-2 3CL protease turned out to be 15 nM. This compound also gave an EC50 in the assay on SARS-CoV-2 (setting [2]) of 426 nM.
In the case of `O=c1[nH]cccc1Cn1c(=O)c2ccc3ccccc3c2n(Cc2cc(F)c(F)c(F)c2)c1=O` [Compound I-0315], the IC50 on SARS-CoV-2 3CL protease worked out at 350 nM. In addition, the EC50 in the assay with SARS-CoV-2 (setting [2]) was 411 nM.

Usually EC50 stands for the concentration that produces a half-maximal response. A higher EC50 goes with lower potency in that assay.
